From patent publication US9745311B2, “Substituted pyrrolo[2,3-b]pyrazines as FGFR inhibitors” (Incyte Corporation, priority 2012, dated 2017)
Where two headings read alike, the source gives them in different places.

How the values were obtained:
FGFR1 = FGFR1 (Homo sapiens (Human), UniProt P11362); test: FGFR Enzymatic Assay (FGFR1); type: biochemical; conditions: enzyme 0.02 nM, ATP 210 μM
Method: (§1) The inhibitor potency of compounds was measured in an enzyme assay that measures peptide phosphorylation using FRET measurements to detect product formation. Inhibitors were serially diluted in DMSO and a volume of 0.5 μL was transferred to the wells of a 384-well plate. For FGFR3, a 10 μL volume of FGFR3 enzyme (Millipore) diluted in assay buffer (50 mM HEPES, 10 mM MgCl2, 1 mM EGTA, 0.01% Tween-20, 5 mM DTT, pH 7.5) was added to the plate and pre-incubated for 5-10 minutes. Appropriate controls (enzyme blank and enzyme with no inhibitor) were included on the plate. […] The plate was incubated at 25° C. for 1 hr. […] The plate was allowed to equilibrate for ˜1 hr before scanning the wells on a PheraStar plate reader.
(§2) GraphPad prism3 was used to analyze the data. The IC50 values were derived by fitting the data to the equation for a sigmoidal dose-response with a variable slope. Y=Bottom+(Top−Bottom)/(1+10^((Log IC50−X)*HillSlope)) where X is the logarithm of concentration and Y is the response.

FGFR2 = FGFR2 (Homo sapiens (Human), UniProt P21802); test: FGFR Enzymatic Assay (FGFR2); type: biochemical;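 also: FRET read-out of peptide phosphorylation by the purified kinase, with enzyme-free blank and uninhibited enzyme as controls, potency from a variable-slope sigmoidal dose-response fit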
Method: as §1, §2

FGFR3 enzyme (Millipore) [1] = target: T1, FGFR3 enzyme (Millipore) (Homo sapiens (Human), UniProt P22607); test: biochemical
Method: as §1, §2

FGFR3 enzyme (Millipore) [2] = target: T1, FGFR3 enzyme (Millipore); conditions: read-out: FGFR3 IC50, ATP 140 μM
Method: as §1, §2

[3] = enzyme 0.01 nM, ATP 100 μM, read-out: FGFR2 IC50

T1 sequence (P22607 23-806): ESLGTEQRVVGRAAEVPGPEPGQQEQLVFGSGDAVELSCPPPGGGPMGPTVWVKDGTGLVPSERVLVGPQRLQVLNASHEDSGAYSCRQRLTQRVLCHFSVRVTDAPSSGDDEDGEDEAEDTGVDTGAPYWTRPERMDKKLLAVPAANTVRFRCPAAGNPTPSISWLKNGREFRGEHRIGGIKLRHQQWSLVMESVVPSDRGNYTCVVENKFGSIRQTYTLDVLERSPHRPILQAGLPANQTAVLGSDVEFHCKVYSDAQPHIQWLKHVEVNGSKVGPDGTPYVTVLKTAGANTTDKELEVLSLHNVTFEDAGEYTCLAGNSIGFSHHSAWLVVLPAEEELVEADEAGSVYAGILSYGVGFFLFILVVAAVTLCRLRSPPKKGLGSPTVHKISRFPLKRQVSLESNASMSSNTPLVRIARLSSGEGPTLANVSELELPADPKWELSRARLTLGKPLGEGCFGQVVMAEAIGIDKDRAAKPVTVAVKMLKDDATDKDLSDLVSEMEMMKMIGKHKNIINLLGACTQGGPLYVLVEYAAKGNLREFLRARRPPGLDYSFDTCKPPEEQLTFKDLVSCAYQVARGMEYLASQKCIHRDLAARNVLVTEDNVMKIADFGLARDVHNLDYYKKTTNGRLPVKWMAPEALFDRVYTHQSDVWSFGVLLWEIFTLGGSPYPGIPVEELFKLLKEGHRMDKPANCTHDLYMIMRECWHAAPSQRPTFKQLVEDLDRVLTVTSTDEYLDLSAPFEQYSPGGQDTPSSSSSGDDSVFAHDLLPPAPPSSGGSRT
FGFR1, sequence (P11362 22-822): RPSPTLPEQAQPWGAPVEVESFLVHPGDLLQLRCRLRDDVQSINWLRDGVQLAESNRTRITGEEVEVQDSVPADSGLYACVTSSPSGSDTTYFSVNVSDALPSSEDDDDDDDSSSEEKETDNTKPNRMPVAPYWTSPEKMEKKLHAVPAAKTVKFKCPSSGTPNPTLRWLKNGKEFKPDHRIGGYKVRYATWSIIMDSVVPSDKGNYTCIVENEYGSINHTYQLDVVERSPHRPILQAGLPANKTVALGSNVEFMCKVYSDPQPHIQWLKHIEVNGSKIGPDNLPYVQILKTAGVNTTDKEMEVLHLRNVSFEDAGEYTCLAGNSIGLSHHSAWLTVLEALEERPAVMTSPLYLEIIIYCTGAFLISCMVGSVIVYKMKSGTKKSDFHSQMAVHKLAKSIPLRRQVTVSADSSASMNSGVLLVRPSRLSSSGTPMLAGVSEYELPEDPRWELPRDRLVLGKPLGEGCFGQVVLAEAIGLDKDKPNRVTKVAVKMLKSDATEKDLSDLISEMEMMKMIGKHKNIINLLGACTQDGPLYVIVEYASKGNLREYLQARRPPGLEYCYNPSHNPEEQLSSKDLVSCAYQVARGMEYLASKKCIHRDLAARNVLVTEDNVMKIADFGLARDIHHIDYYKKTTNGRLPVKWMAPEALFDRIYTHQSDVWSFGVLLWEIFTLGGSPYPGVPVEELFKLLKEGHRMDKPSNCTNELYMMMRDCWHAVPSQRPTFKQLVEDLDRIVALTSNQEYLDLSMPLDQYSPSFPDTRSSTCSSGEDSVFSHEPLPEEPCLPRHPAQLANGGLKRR
FGFR2, sequence (P21802 22-821): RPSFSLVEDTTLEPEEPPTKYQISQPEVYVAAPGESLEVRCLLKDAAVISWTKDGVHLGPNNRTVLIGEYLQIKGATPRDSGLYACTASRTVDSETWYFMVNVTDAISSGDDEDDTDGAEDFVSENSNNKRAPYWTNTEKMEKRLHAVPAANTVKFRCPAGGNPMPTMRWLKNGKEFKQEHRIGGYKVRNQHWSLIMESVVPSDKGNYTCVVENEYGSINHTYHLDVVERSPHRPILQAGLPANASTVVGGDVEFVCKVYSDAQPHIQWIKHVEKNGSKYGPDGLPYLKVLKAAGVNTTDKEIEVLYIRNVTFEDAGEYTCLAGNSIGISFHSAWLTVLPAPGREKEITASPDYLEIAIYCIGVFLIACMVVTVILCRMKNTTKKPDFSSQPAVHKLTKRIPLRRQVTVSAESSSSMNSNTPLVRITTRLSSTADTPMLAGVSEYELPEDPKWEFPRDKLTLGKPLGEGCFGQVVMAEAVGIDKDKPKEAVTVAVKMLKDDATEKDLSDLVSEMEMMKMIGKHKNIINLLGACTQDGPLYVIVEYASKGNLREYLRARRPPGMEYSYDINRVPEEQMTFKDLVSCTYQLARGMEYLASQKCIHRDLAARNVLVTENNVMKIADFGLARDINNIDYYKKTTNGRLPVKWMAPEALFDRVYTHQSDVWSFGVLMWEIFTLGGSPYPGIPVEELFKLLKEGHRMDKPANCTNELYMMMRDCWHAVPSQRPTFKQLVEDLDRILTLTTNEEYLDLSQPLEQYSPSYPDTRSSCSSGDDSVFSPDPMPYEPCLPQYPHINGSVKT

| SMILES | IC50 (FGFR1) | IC50 (FGFR2; [3]) | IC50 (FGFR3 enzyme (Millipore) [2]; class symbols) | IC50 (FGFR2) | IC50 (FGFR3 enzyme (Millipore) [1]) | IC50 (FGFR3 enzyme (Millipore) [2]; numeric bounds) |
| --- | --- | --- | --- | --- | --- | --- |
| COc1cc(CCc2cnc3[nH]c(-c4c(F)cccc4F)cc3n2)cc(OC)c1 [Example 4, 6-(2,6-difluorophenyl)-2-(3,5-dimethoxyphenethyl)-5H-pyrrolo[2,3-b]pyrazine] | < 100 nM | – | – | 100 to 500 nM | 500 to 2700 nM | – |
| COc1cc(CCc2cnc3[nH]c(-c4ccc(NC(C)=O)cc4)cc3n2)cc(OC)c1 [Example 6, N-(4-{2-[2-(3,5-dimethoxyphenyl)ethyl]-5H-pyrrolo[2,3-b]pyrazin-6-yl}phenyl)acetamide] | < 100 nM | < 100 nM | – | – | 100 to 500 nM | – |
| COc1cc(CCc2cnc3[nH]c(-c4ccc(C(=O)N(C)C)cc4)cc3n2)cc(OC)c1 [Example 7, 4-{2-[2-(3,5-dimethoxyphenyl)ethyl]-5H-pyrrolo[2,3-b]pyrazin-6-yl}-N,N-dimethylbenzamide] | < 100 nM | < 100 nM | – | – | 100 to 500 nM | – |
| COc1cc(CCc2cnc3[nH]c(-c4ccc(C(F)(F)F)cc4)cc3n2)cc(OC)c1 [Example 8, 2-[2-(3,5-dimethoxyphenyl)ethyl]-6-[4-(trifluoromethyl)phenyl]-5H-pyrrolo[2,3-b]pyrazine] | < 100 nM | – | – | 100 to 500 nM | 100 to 500 nM | – |
| COc1cc(CCc2cnc3[nH]c(-c4ccc(N5CCN(C)CC5)cc4)cc3n2)c(Cl)c(OC)c1 [Example 48, 2-[2-(2-chloro-3,5-dimethoxyphenyl)ethyl]-6-[4-(4-methylpiperazin-1-yl)phenyl]-5H-pyrrolo[2,3-b]pyrazine] | < 100 nM | < 100 nM | < 100 nM | – | – | – |
| COc1cc(OC)c(Cl)c(CCc2cnc3[nH]c(-c4ccc(N5CCN(C)CC5)cc4)cc3n2)c1Cl [Example 49, 2-[2-(2,6-dichloro-3,5-dimethoxyphenyl)ethyl]-6-[4-(4-methylpiperazin-1-yl)phenyl]-5H-pyrrolo[2,3-b]pyrazine] | < 100 nM | < 100 nM | < 100 nM | – | – | – |
| COc1cc(CCc2cnc3[nH]c(-c4ccc(N5CCN(C)CC5)cc4)c(C)c3n2)cc(OC)c1 [Example 51, 2-[2-(3,5-dimethoxyphenyl)ethyl]-7-methyl-6-[4-(4-methylpiperazin-1-yl)phenyl]-5H-pyrrolo[2,3-b]pyrazine] | < 100 nM | < 100 nM | < 100 nM | – | – | – |
| CCc1c(-c2ccc(N3CCN(C)CC3)cc2)[nH]c2ncc(CCc3cc(OC)cc(OC)c3)nc12 [Example 52, 2-[2-(3,5-dimethoxyphenyl)ethyl]-7-ethyl-6-[4-(4-methylpiperazin-1-yl)phenyl]-5H-pyrrolo[2,3-b]pyrazine] | < 100 nM | < 100 nM | < 100 nM | – | – | – |
| COc1cc(CCc2cnc3[nH]c(-c4ccc(C(=O)NC(C)C)c(Cl)c4)cc3n2)cc(OC)c1 [Example 53, 2-Chloro-4-(2-(3,5-dimethoxyphenethyl)-5H-pyrrolo[2,3-b]pyrazin-6-yl)-N-isopropylbenzamide] | < 100 nM | < 100 nM | < 100 nM | – | – | – |
| COc1cc(CCc2cnc3[nH]c(-c4ccc(C(=O)N(C)C)c(Cl)c4)cc3n2)cc(OC)c1 [Example 56, 2-Chloro-4-(2-(3,5-dimethoxyphenethyl)-5H-pyrrolo[2,3-b]pyrazin-6-yl)-N,N-dimethylbenzamide] | < 100 nM | < 100 nM | < 100 nM | – | – | – |
| COc1cc(CCc2cnc3[nH]c(-c4cnc5nccnc5c4)cc3n2)cc(OC)c1 [Example 66, 7-(2-(3,5-Dimethoxyphenethyl)-5H-pyrrolo[2,3-b]pyrazin-6-yl)pyrido[2,3-b]pyrazine] | < 100 nM | < 100 nM | – | – | – | > 2000 nM |
| CNC(=O)c1cc2nc(CCc3c(F)c(OC)cc(OC)c3F)cnc2[nH]1 [Example 89, 2-(2,6-difluoro-3,5-dimethoxyphenethyl)-N-methyl-5H-pyrrolo[2,3-b]pyrazine-6-carboxamide] | < 100 nM | < 100 nM | – | – | – | > 400 nM |

Now from value to molecule, other results behind:

| IC50 (FGFR1) | IC50 (FGFR2; [3]) | IC50 (FGFR3 enzyme (Millipore) [2]; class symbols) | SMILES | IC50 (FGFR2) | IC50 (FGFR3 enzyme (Millipore) [1]) | IC50 (FGFR3 enzyme (Millipore) [2]; numeric bounds) |
| --- | --- | --- | --- | --- | --- | --- |
| < 100 nM | < 100 nM | < 100 nM | CNC(=O)c1ccc(-c2cc3nc(CCc4cc(OC)cc(OC)c4)cnc3[nH]2)cc1F [Example 57, 4-(2-(3,5-Dimethoxyphenethyl)-5H-pyrrolo[2,3-b]pyrazin-6-yl)-2-fluoro-N-methylbenzamide] | – | – | – |
| < 100 nM | < 100 nM | < 100 nM | COc1cc(CCc2cnc3[nH]c(-c4ccc5c(cnn5C)c4)cc3n2)cc(OC)c1 [Example 62, 2-(3,5-Dimethoxyphenethyl)-6-(1-methyl-1H-indazol-5-yl)-5H-pyrrolo[2,3-b]pyrazine] | – | – | – |
| < 100 nM | < 100 nM | < 100 nM | COc1cc(CCc2cnc3[nH]c(-c4ccnc(N5CCNCC5)c4)cc3n2)cc(OC)c1 [Example 64, 2-(3,5-Dimethoxyphenethyl)-6-(2-(piperazin-1-yl)pyridin-4-yl)-5H-pyrrolo[2,3-b]pyrazine] | – | – | – |
| < 100 nM | < 100 nM | < 100 nM | COc1cc(CCc2cnc3[nH]c(-c4ccc(N5CCN(CCO)CC5)cc4)cc3n2)cc(OC)c1 [Example 71, 2-(4-(4-(2-(3,5-Dimethoxyphenethyl)-5H-pyrrolo[2,3-b]pyrazin-6-yl)phenyl)piperazin-1-yl)ethanol] | – | – | – |
| < 100 nM | < 100 nM | < 100 nM | CNC(=O)c1cc(-c2cc3nc(CCc4cc(OC)cc(OC)c4)cnc3[nH]2)ccn1 [Example 73, 4-(2-(3,5-Dimethoxyphenethyl)-5H-pyrrolo[2,3-b]pyrazin-6-yl)-N-methylpicolinamide] | – | – | – |
| < 100 nM | < 100 nM | < 100 nM | COc1cc(CCc2cnc3[nH]c(-c4ccc(N5CCN(C)CC5=O)cc4)cc3n2)cc(OC)c1 [Example 76, 1-(4-(2-(3,5-Dimethoxyphenethyl)-5H-pyrrolo[2,3-b]pyrazin-6-yl)phenyl)-4-methylpiperazin-2-one] | – | – | – |
| < 100 nM | < 100 nM | < 100 nM | COc1cc(CCc2cnc3[nH]c(-c4ccc(N5CCC(O)CC5)cc4)cc3n2)cc(OC)c1 [Example 77, 1-(4-(2-(3,5-Dimethoxyphenethyl)-5H-pyrrolo[2,3-b]pyrazin-6-yl)phenyl)piperidin-4-ol] | – | – | – |
| < 100 nM | < 100 nM | < 100 nM | COc1cc(CCc2cnc3[nH]c(-c4cccc(N5CCNCC5)c4)cc3n2)cc(OC)c1 [Example 78, 2-(3,5-Dimethoxyphenethyl)-6-(3-(piperazin-1-yl)phenyl)-5H-pyrrolo[2,3-b]pyrazine] | – | – | – |
| < 100 nM | < 100 nM | < 100 nM | COc1cc(CCc2cnc3[nH]c(-c4cccc(N5CCN(C)CC5)c4)cc3n2)cc(OC)c1 [Example 79, 2-(3,5-Dimethoxyphenethyl)-6-(3-(4-methylpiperazin-1-yl)phenyl)-5H-pyrrolo[2,3-b]pyrazine] | – | – | – |
| < 100 nM | < 100 nM | < 100 nM | COc1cc(CCc2cnc3[nH]c(-c4ccc5c(c4)CC(=O)N5)cc3n2)cc(OC)c1 [Example 80, 5-(2-(3,5-Dimethoxyphenethyl)-5H-pyrrolo[2,3-b]pyrazin-6-yl)indolin-2-one] | – | – | – |
| < 100 nM | < 100 nM | < 100 nM | COc1cc(CCc2cnc3[nH]c(-c4ccc(N5CCN(C)C(=O)C5)cc4)cc3n2)cc(OC)c1 [Example 81, 4-(4-(2-(3,5-Dimethoxyphenethyl)-5H-pyrrolo[2,3-b]pyrazin-6-yl)phenyl)-1-methylpiperazin-2-one] | – | – | – |
| < 100 nM | < 100 nM | < 100 nM | COc1cc(CCc2cnc3[nH]c(-c4ccc(N5CCN(C)CC5)cc4)cc3n2)c(F)c(OC)c1 [Example 82, 2-(2-Fluoro-3,5-dimethoxyphenethyl)-6-(4-(4-methylpiperazin-1-yl)phenyl)-5H-pyrrolo[2,3-b]pyrazine] | – | – | – |
| < 100 nM | < 100 nM | < 100 nM | COc1cc(OC)c(F)c(CCc2cnc3[nH]c(-c4cn[nH]c4C)cc3n2)c1F [Example 83, 2-[2-(2,6-difluoro-3,5-dimethoxyphenyl)ethyl]-6-(5-methyl-1H-pyrazol-4-yl)-5H-pyrrolo[2,3-b]pyrazine] | – | – | – |
| < 100 nM | < 100 nM | < 100 nM | COc1cc(OC)c(F)c(CCc2cnc3[nH]c(-c4cnn(C)c4)cc3n2)c1F [Example 84, 2-(2,6-difluoro-3,5-dimethoxyphenethyl)-6-(1-methyl-1H-pyrazol-4-yl)-5H-pyrrolo[2,3-b]pyrazine] | – | – | – |
| < 100 nM | < 100 nM | < 100 nM | COc1cc(OC)c(F)c(CCc2cnc3[nH]c(-c4ccccc4C#N)cc3n2)c1F [Example 85, 2-(2-(2,6-difluoro-3,5-dimethoxyphenethyl)-5H-pyrrolo[2,3-b]pyrazin-6-yl)benzonitrile] | – | – | – |
| < 100 nM | < 100 nM | < 100 nM | COc1cc(OC)c(F)c(CCc2cnc3[nH]c(-c4cccnc4OC)cc3n2)c1F [Example 86, 2-(2,6-difluoro-3,5-dimethoxyphenethyl)-6-(2-methoxypyridin-3-yl)-5H-pyrrolo[2,3-b]pyrazine] | – | – | – |
| < 100 nM | < 100 nM | < 100 nM | COc1cc(OC)c(F)c(CCc2cnc3[nH]c(-c4cnn(CCN(C)C)c4)cc3n2)c1F [Example 87, 2-(4-(2-(2,6-difluoro-3,5-dimethoxyphenethyl)-5H-pyrrolo[2,3-b]pyrazin-6-yl)-1H-pyrazol-1-yl)-N,N-dimethylethanamine] | – | – | – |
| < 100 nM | < 100 nM | < 100 nM | COc1cc(OC)c(F)c(CCc2cnc3[nH]c(-c4cnn(CC(C)(C)O)c4)cc3n2)c1F [Example 88, 1-(4-(2-(2,6-difluoro-3,5-dimethoxyphenethyl)-5H-pyrrolo[2,3-b]pyrazin-6-yl)-1H-pyrazol-1-yl)-2-methylpropan-2-ol] | – | – | – |
